Legend:
Format in all cases: in vivo
[1] = system: Stellaria media; test: Pre-emergence herbicidal efficacy, STEME; details: Table B1, application rate 320 g/ha, scored visually after about 3 weeks vs untreated controls
Method in brief: (§1)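 Seeds were sown in pots and covered with soil; WP or EC formulations were sprayed onto the soil surface as aqueous suspension or emulsion with 0.5% additive. Pots were kept in a greenhouse, and after about 3 weeks damage was rated visually as percent versus untreated controls (100% = plants dead, 0% = like control).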

[2] = system: Viola tricolor; test: Pre-emergence herbicidal efficacy, VIOTR; details: Table B1, application rate 320 g/ha, scored visually after about 3 weeks vs untreated controls
Method in brief: as §1

[3] = system: Veronica persica; test: Post-emergence herbicidal efficacy, VERPE
Description: (§2) ABUTH: Abutilon theophrasti ALOMY: Alopecurus myosuroides AMARE: Amaranthus retroflexus AVEFA: Avena fatua CYPES: Cyperus esculentus ECHCG: Echinochloa crus-galli LOLMU: Lolium multiflorum MATIN: Matricaria inodora PHBPU: Ipomoea purpurea POLCO: Polygonum convolvulus SETVI: Setaria viridis STEME: Stellaria media VERPE: Veronica persica VTOTR: Viola tricolor
(§3) C.2 Post-Emergence Herbicidal Action and Crop Plant Compatibility
(§4) Seeds of monocotyledonous and dicotyledonous weeds and crop plants are placed in sandy loam in plastic or organic planting pots, covered with soil and cultivated in a greenhouse under controlled growth conditions. 2 to 3 weeks after sowing, the test plants are treated at the one-leaf stage. The compounds of the invention, formulated in the form of wettable powders (WP) or as emulsion concentrates (EC), are then sprayed onto the green parts of the plants as aqueous suspension or emulsion with addition of 0.5% additive at a water application rate of […] (converted). After the test plants had been kept in the greenhouse under optimum growth conditions for about 3 weeks, the activity of the preparations is rated visually in comparison to untreated controls. For example, 100% activity=the plants have died, 0% activity=like control plants.

[4] = system: Lolium rigidum; test: Pre-emergence herbicidal efficacy, LOLRI; details: Table B1, application rate 320 g/ha, scored visually after about 3 weeks vs untreated controls
Description: C.1 Pre-Emergence Herbicidal Action and Crop Plant Compatibility Seeds of monocotyledonous and dicotyledonous weed plants and crop plants are placed in plastic or organic planting pots and covered with soil. The compounds of the invention, formulated in the form of wettable powders (WP) or as emulsion concentrates (EC), are then applied onto the surface of the covering soil as aqueous suspension or emulsion with addition of 0.5% additive at a water application rate of […] (converted). After the treatment, the pots are placed in a greenhouse and kept under good growth conditions for the trial plants. After about 3 weeks, the effect of the preparations is scored visually in comparison with untreated controls as percentages. For example, 100% activity=the plants have died, 0% activity=like control plants. […] Here, for example, compound Nos. I-214 and I-196, when applied pre-emergence, have very good activity (80% to 100% herbicidal activity) against harmful plants such as Abutilon theophrasti, Amaranthus retroflexus, Echinochloa crus-galli, Lolium rigidum, Matricaria inodora, Polygonum convolvulus, Setaria viridis, Stellaria media, Veronica persica and Viola tricolor at an application rate of 0.32 kg of active substance or less per hectare. At the same time, some of the compounds according to the invention leave Gramineae crops such as barley, wheat, rye, millet/sorghum, corn, rice or sugar cane virtually undamaged when applied pre-emergence, even at high active compound dosages. In addition, some substances are also harmless to dicotyledonous crops such as soya, cotton, oilseed rape or sugar beet.

[5] = system: Polygonum convolvulus; test: Pre-emergence herbicidal efficacy, POLCO; details: Table B1, application rate 320 g/ha, scored visually after about 3 weeks vs untreated controls
Method in brief: as §1

[6] = system: Matricaria inodora; test: Pre-emergence herbicidal efficacy, MATIN; details: Table B1, application rate 320 g/ha, scored visually after about 3 weeks vs untreated controls
Method in brief: as §1

[7] = system: Veronica persica; test: Pre-emergence herbicidal efficacy, VERPE; details: Table B1, application rate 320 g/ha, scored visually after about 3 weeks vs untreated controls
Method in brief: as §1

[8] = system: Echinochloa crus-galli; test: Pre-emergence herbicidal efficacy, ECHCG; details: Table B1, application rate 320 g/ha, scored visually after about 3 weeks vs untreated controls
Method in brief: as §1

[9] = system: Viola tricolor; test: Post-emergence herbicidal efficacy, VIOTR
Description: as §2, §3, §4

[10] = system: Abutilon theophrasti; test: Pre-emergence herbicidal efficacy, ABUTH; details: Table B1, application rate 320 g/ha, scored visually after about 3 weeks vs untreated controls
Method in brief: as §1

[11] = system: Setaria viridis; test: Pre-emergence herbicidal efficacy, SETVI; details: Table B1, application rate 320 g/ha, scored visually after about 3 weeks vs untreated controls
Method in brief: as §1

[12] = system: Amaranthus retroflexus; test: Pre-emergence herbicidal efficacy, AMARE; details: Table B1, application rate 320 g/ha, scored visually after about 3 weeks vs untreated controls
Method in brief: as §1

[13] = system: Echinochloa crus-galli; test: Post-emergence herbicidal efficacy, ECHCG; details: application rate 320 g/ha, rated visually after about 3 weeks
Description: as §2, §3, §4

[14] = system: Stellaria media; test: Post-emergence herbicidal efficacy, STEME; details: application rate 320 g/ha, rated visually after about 3 weeks
Description: as §2, §3, §4

[15] = system: Amaranthus retroflexus; test: Post-emergence herbicidal efficacy, AMARE; details: application rate 320 g/ha, rated visually after about 3 weeks
Description: as §2, §3, §4

[16] = application rate 320 g/ha, rated visually after about 3 weeks (Table B7)
[17] = application rate 1280 g/ha, rated visually after about 3 weeks
[18] = application rate 320 g/ha, rated visually after about 3 weeks (Table B5)

CC(=O)N1CCn2nc(N[C@@H]3CCCc4ccccc43)nc2C1 [Example I-163]
Herbicidal efficacy against STEME [1]: 100%
Herbicidal efficacy against VIOTR [2]: 100%
Herbicidal efficacy against VERPE [3, 16]: 90%
Herbicidal efficacy against LOLRI [4]: 80%
Herbicidal efficacy against POLCO [5]: 100%
Herbicidal efficacy against MATIN [6]: 100%
Herbicidal efficacy against VERPE [7]: 100%
Herbicidal efficacy against ECHCG [8]: 100%
Herbicidal efficacy against VIOTR [9, 16]: 80%
Herbicidal efficacy against ABUTH [10]: 100%
Herbicidal efficacy against SETVI [11]: 100%
Herbicidal efficacy against AMARE [12]: 100%

CC(=O)N1CCn2nc(NC3c4cc(C)ccc4CC3C)nc2C1 (centres unmarked) [Example I-165]
Herbicidal efficacy against STEME [1]: 100%
Herbicidal efficacy against VIOTR [2]: 100%
Herbicidal efficacy against VERPE [3, 16]: 90%
Herbicidal efficacy against LOLRI [4]: 100%
Herbicidal efficacy against POLCO [5]: 100%
Herbicidal efficacy against MATIN [6]: 100%
Herbicidal efficacy against VERPE [7]: 100%
Herbicidal efficacy against ECHCG [8]: 100%
Herbicidal efficacy against VIOTR [9, 16]: 80%
Herbicidal efficacy against ABUTH [10]: 100%
Herbicidal efficacy against SETVI [11]: 100%
Herbicidal efficacy against AMARE [12]: 100%

CC(=O)N1CCn2nc(N[C@@H]3CCc4ccc(C)cc43)nc2C1 [Example I-173]
Herbicidal efficacy against STEME [1]: 100%
Herbicidal efficacy against VIOTR [2]: 100%
Herbicidal efficacy against VERPE [3, 16]: 90%
Herbicidal efficacy against LOLRI [4]: 100%
Herbicidal efficacy against POLCO [5]: 100%
Herbicidal efficacy against MATIN [6]: 100%
Herbicidal efficacy against VERPE [7]: 100%
Herbicidal efficacy against ECHCG [8]: 100%
Herbicidal efficacy against VIOTR [9, 16]: 80%
Herbicidal efficacy against ABUTH [10]: 100%
Herbicidal efficacy against SETVI [11]: 100%
Herbicidal efficacy against AMARE [12]: 100%

Cc1ccc2c(c1)[C@H](Nc1nc3n(n1)CCN(S(C)(=O)=O)C3)[C@@H](C)C2 [Example I-190]
Herbicidal efficacy against STEME [1]: 100%
Herbicidal efficacy against VIOTR [2]: 100%
Herbicidal efficacy against VERPE [3, 16]: 80%
Herbicidal efficacy against LOLRI [4]: 100%
Herbicidal efficacy against POLCO [5]: 100%
Herbicidal efficacy against MATIN [6]: 100%
Herbicidal efficacy against VERPE [7]: 100%
Herbicidal efficacy against ECHCG [8]: 100%
Herbicidal efficacy against VIOTR [9, 16]: 80%
Herbicidal efficacy against ABUTH [10]: 100%
Herbicidal efficacy against SETVI [11]: 100%
Herbicidal efficacy against AMARE [12]: 100%

Cc1ccc2c(c1)[C@H](Nc1nc3n(n1)CCN(S(C)(=O)=O)C3)CCC2 [Example I-198]
Herbicidal efficacy against STEME [1]: 100%
Herbicidal efficacy against VIOTR [2]: 100%
Herbicidal efficacy against VERPE [3, 16]: 90%
Herbicidal efficacy against LOLRI [4]: 100%
Herbicidal efficacy against POLCO [5]: 100%
Herbicidal efficacy against MATIN [6]: 100%
Herbicidal efficacy against VERPE [7]: 100%
Herbicidal efficacy against ECHCG [8]: 90%
Herbicidal efficacy against VIOTR [9, 16]: 80%
Herbicidal efficacy against ABUTH [10]: 100%
Herbicidal efficacy against SETVI [11]: 90%
Herbicidal efficacy against AMARE [12]: 100%

Cc1ccc2c(c1)[C@H](Nc1nc3n(n1)CCN(S(=O)(=O)C1CC1)C3)CCC2 [Example I-200]
Herbicidal efficacy against STEME [1]: 100%
Herbicidal efficacy against VIOTR [2]: 100%
Herbicidal efficacy against VERPE [3, 16]: 100%
Herbicidal efficacy against LOLRI [4]: 100%
Herbicidal efficacy against POLCO [5]: 100%
Herbicidal efficacy against MATIN [6]: 100%
Herbicidal efficacy against VERPE [7]: 100%
Herbicidal efficacy against ECHCG [8]: 100%
Herbicidal efficacy against VIOTR [9, 16]: 80%
Herbicidal efficacy against ABUTH [10]: 100%
Herbicidal efficacy against SETVI [11]: 100%
Herbicidal efficacy against AMARE [12]: 100%

Fc1cccc2c1CCC[C@H]2Nc1nc2n(n1)CCCCS2 [Example I-213]
Herbicidal efficacy against STEME [1]: 100%
Herbicidal efficacy against VIOTR [2]: 100%
Herbicidal efficacy against VERPE [3, 16]: 90%
Herbicidal efficacy against LOLRI [4]: 100%
Herbicidal efficacy against POLCO [5]: 100%
Herbicidal efficacy against MATIN [6]: 100%
Herbicidal efficacy against VERPE [7]: 100%
Herbicidal efficacy against ECHCG [8]: 100%
Herbicidal efficacy against VIOTR [9, 16]: 90%
Herbicidal efficacy against ABUTH [10]: 100%
Herbicidal efficacy against SETVI [11]: 100%
Herbicidal efficacy against AMARE [12]: 100%

Cc1ccc2c(c1)C(Nc1nc3n(n1)CCC(=O)N3C)CC2 (centres unmarked) [Example I-227]
Herbicidal efficacy against STEME [1]: 100%
Herbicidal efficacy against VIOTR [2]: 100%
Herbicidal efficacy against VERPE [3, 16]: 100%
Herbicidal efficacy against LOLRI [4]: 100%
Herbicidal efficacy against POLCO [5]: 100%
Herbicidal efficacy against MATIN [6]: 100%
Herbicidal efficacy against VERPE [7]: 100%
Herbicidal efficacy against ECHCG [8]: 100%
Herbicidal efficacy against VIOTR [9, 16]: 90%
Herbicidal efficacy against ABUTH [10]: 100%
Herbicidal efficacy against SETVI [11]: 100%
Herbicidal efficacy against AMARE [12]: 100%

Cc1ccc2c(c1)C(Nc1nc3n(n1)CCCCS3(=O)=O)CCC2 (centres unmarked) [Example I-234]
Herbicidal efficacy against STEME [1]: 100%
Herbicidal efficacy against VIOTR [2]: 100%
Herbicidal efficacy against VERPE [3, 16]: 80%
Herbicidal efficacy against LOLRI [4]: 100%
Herbicidal efficacy against POLCO [5]: 100%
Herbicidal efficacy against MATIN [6]: 100%
Herbicidal efficacy against VERPE [7]: 100%
Herbicidal efficacy against ECHCG [8]: 100%
Herbicidal efficacy against VIOTR [9, 16]: 90%
Herbicidal efficacy against ABUTH [10]: 100%
Herbicidal efficacy against SETVI [11]: 100%
Herbicidal efficacy against AMARE [12]: 100%

Cc1ccc2c(c1)C(Nc1nc3n(n1)CCCC[S+]3[O-])CC2 (centres unmarked) [Example I-245]
Herbicidal efficacy against STEME [1]: 100%
Herbicidal efficacy against VIOTR [2]: 100%
Herbicidal efficacy against VERPE [3, 16]: 90%
Herbicidal efficacy against LOLRI [4]: 100%
Herbicidal efficacy against POLCO [5]: 100%
Herbicidal efficacy against MATIN [6]: 100%
Herbicidal efficacy against VERPE [7]: 100%
Herbicidal efficacy against ECHCG [8]: 100%
Herbicidal efficacy against VIOTR [9, 16]: 80%
Herbicidal efficacy against ABUTH [10]: 100%
Herbicidal efficacy against SETVI [11]: 100%
Herbicidal efficacy against AMARE [12]: 100%

[O-][S+]1CCCCn2nc(NC3CCCc4ccccc43)nc21 (centres unmarked) [Example I-249]
Herbicidal efficacy against STEME [1]: 100%
Herbicidal efficacy against VIOTR [2]: 100%
Herbicidal efficacy against VERPE [3, 17]: 80%
Herbicidal efficacy against POLCO [5]: 100%
Herbicidal efficacy against MATIN [6]: 100%
Herbicidal efficacy against VERPE [7]: 100%
Herbicidal efficacy against ECHCG [8]: 100%
Herbicidal efficacy against VIOTR [9, 17]: 80%
Herbicidal efficacy against ABUTH [10]: 100%
Herbicidal efficacy against SETVI [11]: 100%
Herbicidal efficacy against AMARE [12]: 100%

c1ccc2c(c1)CCC[C@H]2Nc1nc2n(n1)CCCCS2 [Example I-355]
Herbicidal efficacy against STEME [1]: 100%
Herbicidal efficacy against VIOTR [2]: 100%
Herbicidal efficacy against VERPE [3, 18]: 80%
Herbicidal efficacy against LOLRI [4]: 80%
Herbicidal efficacy against POLCO [5]: 100%
Herbicidal efficacy against ECHCG [13]: 100%
Herbicidal efficacy against MATIN [6]: 100%
Herbicidal efficacy against VERPE [7]: 100%
Herbicidal efficacy against STEME [14]: 100%
Herbicidal efficacy against AMARE [15]: 80%
Herbicidal efficacy against ECHCG [8]: 100%
Herbicidal efficacy against VIOTR [9, 18]: 80%
Herbicidal efficacy against ABUTH [10]: 100%
Herbicidal efficacy against SETVI [11]: 100%
Herbicidal efficacy against AMARE [12]: 100%
